# Reference: patent US20130253022A1 (FOX CHASE CHEMICAL DIVERSITY CENTER, INC., priority 2010, published 2013)
# Assays:
# Hippocampal Cultures [1] = assay: Neuroprotection from hydrogen peroxide (oxidative stress), propidium iodide assay; assay type: cell-based; conditions: Rattus norvegicus; 10 μM hydrogen peroxide, hippocampal cultures, 4 hour test period; read-out: NP from Hydrogen Peroxide PI EC50
# Text: (§1) Cell cultures: All compounds are screened with dissociated hippocampal cultures derived from embryonic day 18 rats as the primary test system. With this preparation, primary neurons are used to test for toxicity as well as neuroprotection in a highly relevant experimental system to epilepsy. In brief, hippocampal tissue are obtained commercially through Brain Bits (Springfield, Ill.) and cultures prepared as previously described by Brewer (Brewer, G. J. Serum-free B27/neurobasal medium supports differentiated growth of neurons from the striatum, substantia nigra, septum, cerebral cortex, cerebellum and dentate gyms, J. Neurosci. Res. 1995, 42, 674-683). The hippocampal neurons are platted at low density (10,000 cell/well) in a 96-well format and maintained in serum-free medium consisting of Neurobasal Medium supplemented with B27 and GlutaMAX (Gibco). Pre-coated poly-L-lysine coated plates are used because of the preferential adherence and survival of hippocampal neurons on this matrix support.
# (§2) Potent neuroprotection is the distinguishing characteristic that separates this program's anticonvulsants from all other commercial drugs for epilepsy. The experimental details and the rationale for the implemented assays are essential in differentiating these compounds from that of others. The central objective of all neuroprotective assays was their relevancy to excitotoxicity and oxidative stress related to epilepsy. Both the amount of glutamate and hydrogen peroxide used in the assays, as well as the time of treatment and duration of the experiment, were designed to be relevant to epilepsy. Further, all time parameters employed in these studies were empirically determined to be within the limits of reversible toxic events, yet using amounts of glutamate and hydrogen peroxide that were relevant to the disease. In regard to glutamate toxicity, a critical feature was the duration of treatment of the hippocampal neurons. The rational for using a short 5 min treatment with glutamate was based on the observation of Randall and Thayer (Randall, R. D.; Thayer, S. A. Glutamate-induced calcium transient triggers calcium overload and neurotoxicity in rat hippocampal neurons, J. Neurosci. 1992, 12, 1882-1895). […] The rationale is that this intense burst of glutamate and resulting calcium overload is relevant to seizures and therefore was important data to capture in the screening assay. The amount of glutamate (30 μM) employed in our screening was based on the basal levels of glutamate observed in microdialysis measurements of hippocampus from epileptogenic patients (Cavus et al. Decreased hippocampal volume on MRI is associated with increased extracellular glutamate in epilepsy patients, Epilepsia, 2008, 49, 1358-1366). In regard to hydrogen peroxide, the amount employed (10 μM) was detected in the hippocampus of rats after kainate-induced status epilepticus (Jarrett et. al., Mitochondrial DNA damage and impaired base excision repair during epileptogenesis, Neurobiol. Dis. 2008, 30, 130-138). To produce neural damage and death with these amounts of glutamate and hydrogen peroxide, the cultures were changed to a medium with significant depletion of antioxidant components in the defined medium supplement B-27 just prior to treatment with the compounds. This was performed to obtain a significant and reproducible toxic signal in the hippocampal neurons and because loss of antioxidant control may be a component of epileptogenesis (Waldbaum and Patel, Mitochondria, oxidative stress and temporal lobe epilepsy, Epilepsy Res. 2010 88, 23-45; Wu et al., Mitochondrial DNA mutation-elicited oxidative stress, oxidative damage, and altered gene expression in cultured cells of patients with MERRF syndrome, Mol. Neurobiol. 2010, 41, 256-266). Neuroprotection studies with hydrogen peroxide were conducted with cultures that were between day 12 and day 18. Studies of neuroprotection glutamate were conducted between day 19 and day 22. […]
# [2] = tested on: MES-induced seizure spread; assay: Maximal electroshock seizure (MES) test, rat; assay type: in vivo, rats; conditions: po
# Method: Seizure-related assays, Maximal electroshock test: The most definitive assay for anti-seizure activity is the maximal electroshock (MES) test (Swinyard, E. A. Laboratory evaluation of antiepileptic drugs: review of laboratory methods, Epilepsia, 1969, 10, 107-119). […] With both rodent assays, the duration of action is of high importance as well as the potency of the response.
# Methods to measure anticonvulsant activity: All tests were conducted by the Anticonvulsant Screening Program (ASP) of the National Institute of Neurological Disease and Stroke at the National Institutes of Health.
# The Maximal Electroshock Seizure (MES) or Maximal Seizure Pattern Test: The MES is a model for generalized tonic-clonic seizures (Putnam and Merritt. Experimental determination of the anticonvulsant properties of some phenyl derivatives. Science 1937, 85, 113-118). It is highly reproducible with consistent endpoints. The behavioral and electrographic seizures generated in this model are consistent with the human disorder. This model identifies those compounds which prevent seizure spread.
# In the MES test, an electrical stimulus of 0.2 s in duration (50 mA in mice and 150 mA in rat at 60 Hz) is delivered via corneal electrodes primed with an electrolyte solution containing an anesthetic agent. Mice are tested at 30 minutes and 4 hours following doses of 30, 100 and 300 mg/kg of test compound. Test compounds are administered intraperitoneally to the mice. Rats are tested at time intervals between 0.25 and 4 hours following a standard oral dose of 30 mg/kg. Abolition of the hindlimb tonic extensor component indicates the test compound's ability to inhibit MES-induced seizure spread.
# Hippocampal Cultures [3] = assay: Neuroprotection from glutamate excitotoxicity, propidium iodide (cell death) assay; assay type: cell-based; conditions: Rattus norvegicus; 30 μM glutamate 5 min, hippocampal cultures, 4 hour test period; read-out: NP from Glutamate PI EC50
# Text: as §1, §2
# 6-Hz psychomotor seizure = assay: 6 Hz psychomotor seizure test, mouse; assay type: in vivo, mice; conditions: ip
# Method: Methods to measure anticonvulsant activity: All tests were conducted by the Anticonvulsant Screening Program (ASP) of the National Institute of Neurological Disease and Stroke at the National Institutes of Health. The 6 Hz Seizure Test: Compounds were further tested in the 6-Hz psychomotor seizure model. (Barton et al. Pharmacological characterization of the 6 Hz psychomotor seizure model of partial epilepsy. Epilepsy Res. 2001, 47, 217-227). This model is used to detect […] that may be useful for the treatment of therapy-resistant partial seizures. For this test, an alternative electrical stimulation paradigm is used with a low frequency (6 Hz), long duration (3 seconds) corneal stimulation. The seizure evoked by this low frequency stimulation is characterized by immobility, forelimb clonus, Straub tail and facial automatisms. Mice are tested from 15 min to 4 hours following an intraperitoneal dose of 100 mg/kg. Abolition of the clonic seizures indicates the ability of a compound to prevent partial or psychomotor seizures.
Compound,EC50 (Hippocampal Cultures [1]),ED50 [2],EC50 (Hippocampal Cultures [3]),ED50 (6-Hz psychomotor seizure)
"NS(=O)(=O)NCC(F)(F)c1ccccc1Cl [Example 2, 2,2-Difluoro-2-(2-chlorophenyl)-ethyl-1-sulfamide]",0.1 nM,30 mg/kg,1 nM,28 mg/kg
"NS(=O)(=O)NCC(F)(F)c1ccccc1F [Example 1, 2,2-Difluoro-2-(2-fluorophenyl)-ethyl-1-sulfamide]",1 nM,30 mg/kg,1 nM,18 mg/kg
